Assay results: ChEMBL document CHEMBL1135773, “Purine and pyrimidine (P2) receptors as drug targets” (J Med Chem, 2002)

Assays:
P2X purinoceptor 3 = target: T1, P2X purinoceptor 3 (Homo sapiens, UniProt P56373); assay: Antagonist activity against recombinant human P2X purinoceptor 3 (P2X3 ); assay type: functional
T1 sequence (P56373 whole entry): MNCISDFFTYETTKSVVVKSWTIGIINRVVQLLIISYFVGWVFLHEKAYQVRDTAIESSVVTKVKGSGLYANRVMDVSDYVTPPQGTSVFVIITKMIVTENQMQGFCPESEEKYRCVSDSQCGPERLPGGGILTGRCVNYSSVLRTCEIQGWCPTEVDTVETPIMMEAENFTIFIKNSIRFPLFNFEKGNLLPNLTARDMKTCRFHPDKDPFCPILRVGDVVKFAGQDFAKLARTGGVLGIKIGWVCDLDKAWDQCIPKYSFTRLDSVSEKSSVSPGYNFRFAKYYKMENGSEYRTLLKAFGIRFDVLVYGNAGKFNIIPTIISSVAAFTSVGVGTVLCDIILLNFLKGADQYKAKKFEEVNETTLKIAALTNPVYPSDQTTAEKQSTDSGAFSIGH

P2X purinoceptor 7 = target: T2, P2X purinoceptor 7 (Homo sapiens, UniProt Q99572); assay: Antagonist activity against recombinant human P2X purinoceptor 7 (P2X7); assay type: functional
T2 sequence (Q99572 whole entry): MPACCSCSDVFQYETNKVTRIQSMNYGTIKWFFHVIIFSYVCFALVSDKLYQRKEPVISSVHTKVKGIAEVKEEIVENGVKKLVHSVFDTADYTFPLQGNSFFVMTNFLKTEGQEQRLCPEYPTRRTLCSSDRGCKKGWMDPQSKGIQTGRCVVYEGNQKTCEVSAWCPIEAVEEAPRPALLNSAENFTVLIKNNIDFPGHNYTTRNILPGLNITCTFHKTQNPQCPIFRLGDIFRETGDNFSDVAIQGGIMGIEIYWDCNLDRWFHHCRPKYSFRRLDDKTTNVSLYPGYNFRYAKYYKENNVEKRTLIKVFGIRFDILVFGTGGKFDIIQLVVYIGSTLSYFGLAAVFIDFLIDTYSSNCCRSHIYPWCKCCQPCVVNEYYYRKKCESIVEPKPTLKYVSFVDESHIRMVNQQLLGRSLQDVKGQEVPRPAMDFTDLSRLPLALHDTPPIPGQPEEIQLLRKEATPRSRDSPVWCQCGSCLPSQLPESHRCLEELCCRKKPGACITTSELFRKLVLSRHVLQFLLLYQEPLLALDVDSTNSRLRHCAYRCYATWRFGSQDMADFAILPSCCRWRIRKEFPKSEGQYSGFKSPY

P2Y purinoceptor 1 = P2Y purinoceptor 1 (Meleagris gallopavo, UniProt P49652); assay: Evaluated for agonist activity against phospholipase C coupled P2Y purinoceptor 1 (P2Y1) of turkey erythrocytes; assay type: functional
Sequence of P2Y purinoceptor 1 (P49652 whole entry): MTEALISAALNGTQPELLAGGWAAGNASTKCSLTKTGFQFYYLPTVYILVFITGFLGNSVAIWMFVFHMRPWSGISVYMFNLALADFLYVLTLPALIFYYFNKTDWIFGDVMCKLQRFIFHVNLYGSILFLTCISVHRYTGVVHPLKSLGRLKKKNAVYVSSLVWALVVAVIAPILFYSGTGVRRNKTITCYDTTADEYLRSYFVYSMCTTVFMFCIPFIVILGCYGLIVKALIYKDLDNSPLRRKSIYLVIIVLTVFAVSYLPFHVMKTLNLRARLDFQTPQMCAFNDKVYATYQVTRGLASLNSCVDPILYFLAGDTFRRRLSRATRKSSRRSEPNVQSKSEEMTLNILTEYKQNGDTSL

P2Y purinoceptor 12 = P2Y purinoceptor 12 (Rattus norvegicus, UniProt Q9EPX4); assay: Antagonist activity against phospholipase C coupled rat P2Y purinoceptor 12 (P2Y12); assay type: functional
Sequence of P2Y purinoceptor 12 (Q9EPX4 whole entry): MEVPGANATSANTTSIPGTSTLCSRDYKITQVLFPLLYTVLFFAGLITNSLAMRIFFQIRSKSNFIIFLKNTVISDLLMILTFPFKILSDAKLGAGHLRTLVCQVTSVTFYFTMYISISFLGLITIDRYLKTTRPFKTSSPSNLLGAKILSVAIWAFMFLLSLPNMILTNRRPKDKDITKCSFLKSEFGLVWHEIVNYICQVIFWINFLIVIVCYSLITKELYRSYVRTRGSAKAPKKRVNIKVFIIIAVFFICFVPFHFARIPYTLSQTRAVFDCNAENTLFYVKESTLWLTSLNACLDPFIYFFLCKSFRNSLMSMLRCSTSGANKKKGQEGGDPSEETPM

P2X purinoceptor 6 = P2X purinoceptor 6 (Rattus norvegicus, UniProt P51579); assay: Antagonist activity against recombinant rat P2X purinoceptor 6 (P2X6 ); assay type: functional
Sequence of P2X purinoceptor 6 (P51579 whole entry): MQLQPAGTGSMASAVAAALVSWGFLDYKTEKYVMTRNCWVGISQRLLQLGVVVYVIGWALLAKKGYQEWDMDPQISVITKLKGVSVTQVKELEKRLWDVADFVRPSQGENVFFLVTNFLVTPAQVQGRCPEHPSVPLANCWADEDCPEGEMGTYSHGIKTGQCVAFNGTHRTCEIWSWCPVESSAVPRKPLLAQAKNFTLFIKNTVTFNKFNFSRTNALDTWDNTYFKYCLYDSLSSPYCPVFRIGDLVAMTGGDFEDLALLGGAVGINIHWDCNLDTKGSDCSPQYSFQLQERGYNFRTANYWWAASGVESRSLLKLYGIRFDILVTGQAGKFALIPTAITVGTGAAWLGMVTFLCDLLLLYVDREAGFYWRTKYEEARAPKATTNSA

P2X purinoceptor 5 = target: T3, P2X purinoceptor 5 (Rattus norvegicus, UniProt P51578); assay: Antagonist activity against recombinant rat P2X purinoceptor 5 (P2X5); assay type: functional
T3 sequence (P51578 whole entry): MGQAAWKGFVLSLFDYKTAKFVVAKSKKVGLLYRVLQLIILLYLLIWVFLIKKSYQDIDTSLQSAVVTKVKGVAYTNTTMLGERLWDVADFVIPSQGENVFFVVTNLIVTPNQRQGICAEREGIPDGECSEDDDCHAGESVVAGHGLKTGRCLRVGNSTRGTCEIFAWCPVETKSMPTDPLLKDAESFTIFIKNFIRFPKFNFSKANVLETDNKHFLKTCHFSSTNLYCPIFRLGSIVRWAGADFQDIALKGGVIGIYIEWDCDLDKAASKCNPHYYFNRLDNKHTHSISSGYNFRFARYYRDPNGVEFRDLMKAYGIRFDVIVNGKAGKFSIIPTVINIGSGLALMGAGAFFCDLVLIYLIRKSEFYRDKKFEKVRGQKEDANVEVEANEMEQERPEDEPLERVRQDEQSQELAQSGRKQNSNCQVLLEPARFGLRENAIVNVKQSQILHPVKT

P2X purinoceptor 2 [1] = target: T4, P2X purinoceptor 2 (Rattus norvegicus, UniProt P49653); assay: Antagonist activity against recombinant rat receptor P2X purinoceptor 2 (P2X2) at 10 uM, expressed in Xenopus oocytes; assay type: functional, cell-based, Oocyte
T4 sequence (P49653 whole entry): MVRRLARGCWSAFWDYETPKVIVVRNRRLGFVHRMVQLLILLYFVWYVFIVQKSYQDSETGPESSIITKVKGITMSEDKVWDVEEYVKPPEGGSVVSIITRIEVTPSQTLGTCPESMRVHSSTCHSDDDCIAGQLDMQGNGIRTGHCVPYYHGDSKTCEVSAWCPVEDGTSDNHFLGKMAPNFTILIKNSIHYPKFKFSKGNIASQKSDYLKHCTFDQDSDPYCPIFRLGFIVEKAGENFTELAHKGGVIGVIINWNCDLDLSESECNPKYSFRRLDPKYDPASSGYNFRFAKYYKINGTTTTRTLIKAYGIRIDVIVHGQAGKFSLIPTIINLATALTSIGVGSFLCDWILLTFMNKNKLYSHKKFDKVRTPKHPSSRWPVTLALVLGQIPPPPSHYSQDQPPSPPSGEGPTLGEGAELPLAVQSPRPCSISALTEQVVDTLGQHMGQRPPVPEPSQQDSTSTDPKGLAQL

P2X purinoceptor 1 = target: T5, P2X purinoceptor 1 (Homo sapiens, UniProt P51575); assay: Antagonist activity against recombinant human P2X purinoceptor 1 (P2X1 ); assay type: functional
T5 sequence (P51575 whole entry): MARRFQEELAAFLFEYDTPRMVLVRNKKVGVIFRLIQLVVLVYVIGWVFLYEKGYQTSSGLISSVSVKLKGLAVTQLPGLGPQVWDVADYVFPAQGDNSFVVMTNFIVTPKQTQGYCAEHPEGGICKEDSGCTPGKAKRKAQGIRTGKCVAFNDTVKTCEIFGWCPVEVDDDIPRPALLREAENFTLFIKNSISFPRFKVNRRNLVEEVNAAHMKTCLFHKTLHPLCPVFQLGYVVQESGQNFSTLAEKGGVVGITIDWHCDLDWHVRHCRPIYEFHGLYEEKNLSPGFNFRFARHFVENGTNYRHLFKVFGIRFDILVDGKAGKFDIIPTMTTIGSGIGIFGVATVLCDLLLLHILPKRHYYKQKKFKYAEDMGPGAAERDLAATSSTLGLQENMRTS

P2X purinoceptor 4 [2] = target: T6, P2X purinoceptor 4 (Rattus norvegicus, UniProt P51577); assay: Antagonist activity against recombinant rat P2X purinoceptor 4 (P2X4) at 30 uM, expressed in Xenopus oocytes; assay type: functional, cell-based, Oocyte
T6 sequence (P51577 whole entry): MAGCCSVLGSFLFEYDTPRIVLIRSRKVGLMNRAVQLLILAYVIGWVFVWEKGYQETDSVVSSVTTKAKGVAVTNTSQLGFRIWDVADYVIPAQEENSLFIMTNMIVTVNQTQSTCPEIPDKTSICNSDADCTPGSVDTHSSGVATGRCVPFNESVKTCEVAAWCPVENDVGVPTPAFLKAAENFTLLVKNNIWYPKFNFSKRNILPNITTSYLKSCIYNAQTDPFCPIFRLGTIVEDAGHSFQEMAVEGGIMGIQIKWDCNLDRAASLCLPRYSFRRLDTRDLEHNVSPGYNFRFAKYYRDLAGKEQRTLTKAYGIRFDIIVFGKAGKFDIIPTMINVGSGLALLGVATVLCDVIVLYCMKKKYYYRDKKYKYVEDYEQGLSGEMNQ

P2Y purinoceptor 4 [3] = target: P2Y purinoceptor 4 (Rattus norvegicus, UniProt O35811); assay: The compound was evaluated for antagonist activity against phospholipase C coupled recombinant rat P2Y purinoceptor 4 (P2Y4); assay type: functional
Sequence of P2Y purinoceptor 4 (Rattus norvegicus, UniProt O35811) (O35811 whole entry): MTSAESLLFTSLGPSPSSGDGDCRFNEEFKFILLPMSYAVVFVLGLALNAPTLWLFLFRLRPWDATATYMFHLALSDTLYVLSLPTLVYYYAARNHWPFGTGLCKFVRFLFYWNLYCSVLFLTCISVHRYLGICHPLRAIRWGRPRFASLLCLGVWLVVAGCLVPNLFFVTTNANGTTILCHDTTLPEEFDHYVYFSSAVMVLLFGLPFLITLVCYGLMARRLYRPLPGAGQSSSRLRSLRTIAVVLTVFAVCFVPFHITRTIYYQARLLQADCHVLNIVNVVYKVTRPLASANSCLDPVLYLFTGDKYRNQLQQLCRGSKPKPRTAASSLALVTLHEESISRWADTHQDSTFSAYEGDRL

P2Y purinoceptor 2 = P2Y purinoceptor 2 (Homo sapiens, UniProt P41231); assay: Evaluated for agonist activity against phospholipase C coupled recombinant human P2Y purinoceptor 2 (P2Y2); assay type: functional
Sequence of P2Y purinoceptor 2 (P41231 whole entry): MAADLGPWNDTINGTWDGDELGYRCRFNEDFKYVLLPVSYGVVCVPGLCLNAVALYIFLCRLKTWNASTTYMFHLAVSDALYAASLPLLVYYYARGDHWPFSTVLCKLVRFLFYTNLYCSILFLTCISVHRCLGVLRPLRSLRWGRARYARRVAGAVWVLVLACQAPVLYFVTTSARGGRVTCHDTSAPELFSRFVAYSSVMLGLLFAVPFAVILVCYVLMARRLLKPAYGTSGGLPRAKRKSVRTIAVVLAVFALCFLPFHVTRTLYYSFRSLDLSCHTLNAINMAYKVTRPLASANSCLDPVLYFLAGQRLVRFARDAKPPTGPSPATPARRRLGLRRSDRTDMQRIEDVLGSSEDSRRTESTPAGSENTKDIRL

P2X purinoceptor 4 [4] = target: T7, P2X purinoceptor 4 (Homo sapiens, UniProt Q99571); assay: Antagonist activity against recombinant human P2X purinoceptor 4 (P2X4); assay type: functional
T7 sequence (Q99571 whole entry): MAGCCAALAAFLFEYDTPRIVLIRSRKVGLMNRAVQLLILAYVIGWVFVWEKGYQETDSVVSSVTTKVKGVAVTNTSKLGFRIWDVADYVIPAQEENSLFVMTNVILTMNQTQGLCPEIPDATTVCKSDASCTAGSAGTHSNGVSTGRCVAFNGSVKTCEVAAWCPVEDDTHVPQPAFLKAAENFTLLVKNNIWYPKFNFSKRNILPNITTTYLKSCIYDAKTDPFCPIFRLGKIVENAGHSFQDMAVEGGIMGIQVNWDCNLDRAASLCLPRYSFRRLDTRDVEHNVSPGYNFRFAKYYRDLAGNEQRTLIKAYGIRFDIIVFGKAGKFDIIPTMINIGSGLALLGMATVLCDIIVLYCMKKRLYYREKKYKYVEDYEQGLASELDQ

P2X purinoceptor 2 [5] = target: P2X purinoceptor 2 (Homo sapiens, UniProt Q9UBL9); assay: The compound was evaluated for antagonist activity against recombinant human receptor P2X purinoceptor 2 (P2X2 ); assay type: functional
Sequence of P2X purinoceptor 2 (Homo sapiens, UniProt Q9UBL9) (Q9UBL9 whole entry): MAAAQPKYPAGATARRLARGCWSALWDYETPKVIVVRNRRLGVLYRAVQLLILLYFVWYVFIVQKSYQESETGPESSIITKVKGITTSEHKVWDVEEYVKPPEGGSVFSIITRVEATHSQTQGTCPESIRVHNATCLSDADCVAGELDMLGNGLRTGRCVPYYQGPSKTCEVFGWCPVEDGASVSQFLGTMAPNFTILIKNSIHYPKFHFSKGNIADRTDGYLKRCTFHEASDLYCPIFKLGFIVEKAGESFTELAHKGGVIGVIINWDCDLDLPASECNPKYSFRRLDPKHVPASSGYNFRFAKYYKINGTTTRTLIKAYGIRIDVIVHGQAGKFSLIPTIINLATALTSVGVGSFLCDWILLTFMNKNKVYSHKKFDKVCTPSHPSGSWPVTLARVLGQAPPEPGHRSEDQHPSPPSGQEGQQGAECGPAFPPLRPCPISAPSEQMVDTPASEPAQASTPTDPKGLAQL

P2X purinoceptor 4 [6] = target: T6, P2X purinoceptor 4; assay: Antagonist activity against recombinant rat P2X purinoceptor 4 (P2X4) at 3 uM, expressed in Xenopus oocytes; assay type: functional, cell-based, Oocyte
[7] = target: P2X purinoceptor 7 (Homo sapiens) (UniProt Q99572); assay: The compound was evaluated for antagonist activity against recombinant human P2X purinoceptor 7 (P2X7); assay type: functional
P2Y purinoceptor 4 [8] = target: P2Y purinoceptor 4 (Homo sapiens, UniProt P51582); assay: The compound was evaluated for antagonist activity against phospholipase C coupled recombinant human P2Y purinoceptor 4 (P2Y4); assay type: functional
Sequence of P2Y purinoceptor 4 (Homo sapiens, UniProt P51582) (P51582 whole entry): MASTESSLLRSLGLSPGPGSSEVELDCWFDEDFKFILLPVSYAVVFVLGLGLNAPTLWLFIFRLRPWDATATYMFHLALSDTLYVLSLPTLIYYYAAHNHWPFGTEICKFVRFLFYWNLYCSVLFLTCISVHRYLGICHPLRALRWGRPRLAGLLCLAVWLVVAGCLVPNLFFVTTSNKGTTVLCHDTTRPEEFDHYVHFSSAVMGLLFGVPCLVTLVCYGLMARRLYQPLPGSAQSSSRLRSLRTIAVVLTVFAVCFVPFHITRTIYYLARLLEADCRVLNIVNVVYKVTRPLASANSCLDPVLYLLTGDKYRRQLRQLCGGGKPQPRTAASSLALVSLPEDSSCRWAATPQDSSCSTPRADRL

P2Y purinoceptor 6 = P2Y purinoceptor 6 (Homo sapiens, UniProt Q15077); assay: The compound was evaluated for agonist activity against phospholipase C coupled recombinant human P2Y purinoceptor 6 (P2Y6); assay type: functional
Sequence of P2Y purinoceptor 6 (Q15077 whole entry): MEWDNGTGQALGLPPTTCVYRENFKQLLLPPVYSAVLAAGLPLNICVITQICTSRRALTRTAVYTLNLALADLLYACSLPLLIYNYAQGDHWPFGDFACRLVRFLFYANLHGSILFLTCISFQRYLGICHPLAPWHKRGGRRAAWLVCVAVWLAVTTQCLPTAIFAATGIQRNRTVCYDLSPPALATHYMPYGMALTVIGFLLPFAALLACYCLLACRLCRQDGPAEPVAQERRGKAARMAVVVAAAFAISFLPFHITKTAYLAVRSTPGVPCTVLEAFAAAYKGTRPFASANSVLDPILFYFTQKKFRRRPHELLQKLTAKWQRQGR

Row | SMILES | EC50 (P2X purinoceptor 3) [µM] | EC50 (P2X purinoceptor 7) [µM] | EC50 (P2Y purinoceptor 1) [µM] | EC50 (P2Y purinoceptor 12) [µM] | EC50 (P2X purinoceptor 6) [µM] | EC50 (P2X purinoceptor 5) [µM] | EC50 (P2X purinoceptor 2 [1]) [µM] | EC50 (P2X purinoceptor 1) [µM] | EC50 (P2X purinoceptor 4 [2]) [µM] | EC50 (P2Y purinoceptor 4 [3]) [µM] | EC50 (P2Y purinoceptor 2) [µM] | EC50 (P2X purinoceptor 4 [4]) [µM] | EC50 (P2X purinoceptor 2 [5]) [µM] | EC50 (P2X purinoceptor 4 [6]) [µM] | IC50 [7] [µM] | EC50 (P2Y purinoceptor 4 [8]) [µM] | EC50 (P2Y purinoceptor 6) [µM]
1 | Nc1ncnc2c1ncn2[C@@H]1O[C@H](COP(=O)(O)CP(=O)(O)OP(=O)(O)O)[C@@H](O)[C@H]1O [DIPHOSPHOMETHYLPHOSPHONIC ACID ADENOSYL ESTER] | 0.74 | > 100 | > 100 | > 100 | > 8 | > 7 | 100 | 0.2 | 33 | – | – | – | – | – | – | – | –
2 | Nc1ncnc2c1ncn2[C@@H]1O[C@H](COP(=O)(O)OP(=O)(O)OP(=O)(O)OP(=O)(O)OC[C@H]2O[C@@H](n3cnc4c(N)ncnc43)[C@H](O)[C@@H]2O)[C@@H](O)[C@H]1O [DIADENOSINE TETRAPHOSPHATE] | 0.5 | – | – | – | – | – | – | 0.182 | – | 3 | 0.72 | 1 | 15 | – | – | – | –
3 | CNc1ncnc2c1ncn2[C@H]1C[C@H](OP(=O)(O)O)[C@@H](COP(=O)(O)O)O1 | – | – | – | > 100 | – | – | > 10 | 1.15 | – | – | > 100 | – | – | > 10 | > 30 | > 100 | > 100
